{"source": "patent US20210220494A1", "about": "“COMPOSITIONS AND METHODS FOR TARGETED PARTICLE PENETRATION, DISTRIBUTION, AND RESPONSE IN MALIGNANT BRAIN TUMORS” (Memorial Sloan Kettering Cancer Center, priority 2016, published 2021)", "key": {"macrophages": {"test_system": "macrophages", "details": "cited from earlier work"}, "NSCLC CNS metastases": {"test_system": "NSCLC CNS metastases", "details": "pulsatile high-dose, cited from earlier work"}, "[1]": {"details": "cited from earlier work"}, "ECLC26 flank tumor": {"test_system": "ECLC26 flank tumor", "details": "ECLC26 flank tumors, multi-dose, caliper measurements", "method": "Tumor volume was measured using caliper measurements of the maximal dimensions of the tumor daily.\nNude mice were implanted with 2 million ECLC26 cells. Mice bearing tumors were treated by i.v. of 200 μL saline or 15 μM Gef-NDC for 2 doses of Gavage with 15 mg/ml Gefitinib, 10 μL/g for 10 days."}}, "data": [{"smiles": "CNC(=O)c1cc(Oc2ccc3nc(N[C@@H]4CCCC[C@H]4O)sc3c2)ccn1", "note": "[BLZ945]", "values": [{"measurement": "expression of M2 polarization markers in TAMs", "setting": "macrophages", "value": "decreased expression of M2 polarization markers"}, {"measurement": "phagocytic activity of macrophages", "setting": "macrophages", "value": "upregulated"}]}, {"smiles": "C#Cc1cccc(Nc2ncnc3cc(OCCOC)c(OCCOC)cc23)c1", "note": "[erlotinib]", "values": [{"measurement": "response of CNS metastases", "setting": "NSCLC CNS metastases; 3 patients", "value": "the response is unpredictable, even at high dose"}, {"measurement": "CNS penetration", "setting": "NSCLC CNS metastases; patients", "value": "improves CNS penetration for NSCLC metastases"}]}, {"smiles": "COc1cc2ncnc(Nc3ccc(F)c(Cl)c3)c2cc1OCCCN1CCOCC1", "note": "[Gefitinib, gefitinib]", "values": [{"measurement": "protein binding", "setting": "[1]", "value": "highly protein bound"}, {"measurement": "tumor volume over time", "setting": "ECLC26 flank tumor", "value": "steady decrease in tumor volume"}]}]}
